The structures appear in SMILES notation. Entries after “also recorded” stand apart in the source; their conditions may differ. Like-named read-outs stand apart in the source and are kept apart here.

For one data set, the system named is P. berghei sporozoites. The data set can be described thus: P. berghei liver-stage assay (sporozoites in Hep G2-A16-CD81 cells, luciferase). The class given is cell-based, Plasmodium berghei. Conditions: Plasmodium berghei, HepG2-A16-CD81, 48 h, read-out: Activity against the P. berghei liver stage, IC50. The method, then:
(§1) Briefly, 3000 Hep G2-A16-CD81 cells/well were seeded in 1536-well plates (Greiner Bio). 50 nL of the test and control compound diluted in DMSO was added and incubated for 24 h. […] The plates were centrifuged for 5 min at 330 × g and incubated at 37°C. Forty-eight hours post infection, 2 μL of luciferin reagent (Promega BrightGlo) was added to each well, and the luciferase activity was detected using a Perkin Elmer Envision plate reader. […] To counter-screen for cellular toxicity, Hep G2-A16-CD81 cells were seeded as above for the sporozoite liver-stage assay but in the absence of sporozoites. Toxicity measurements were performed by adding Promega CellTiterGlo® (2 μL), followed by luminescence measurements. Curve fitting was done as described above using puromycin (25 μM) as a positive control and DMSO as negative control wells.

Data set [1] relates to P. falciparum K1. The data set is described as follows: In vitro antiplasmodial activity, P. falciparum K1 (lactate dehydrogenase assay). The class given is cell-based, Plasmodium falciparum. Conditions: Plasmodium falciparum, read-out: Activity against P. falciparum K1, IC50. The procedure:
P. falciparum (K1 clone) was maintained in human erythrocytes prepared from the donated blood samples (blood groups unknown, Ethical Tissue, University of Bradford), suspended in the RPMI 1640 medium as previously described ([Wright et al., 2001]), except that serum was replaced with Albumax II, [5% (^w/v)]. […] Twofold serial dilutions were made in 96-well microtiter plates in duplicate, and infected erythrocytes were added to give a final volume of 100 µL with 2.5% hematocrit and 1% parasitemia. Chloroquine diphosphate was used as a positive control, and uninfected and infected erythrocytes without compounds were included in each test. The plates were placed into a modular incubator; gassed with 93% nitrogen, 3% oxygen, and 4% carbon dioxide; and incubated at 37°C for 48 h. The parasite growth was assessed by measuring lactate dehydrogenase activity as described by [Makler et al. (1993)]. The reagent used contained the following in each mL: acetylpyridine adenine dinucleotide (APAD), 0.74 mg; lithium lactate, 19.2 mg; diaphorase, 0.1 mg; Triton X-100, 2 μL; nitroblue tetrazolium, 1 mg; and phenazine ethosulphate, 0.5 mg. Fifty microliter of this reagent was added to each well and mixed; plates were incubated for 15 min at 37°C. The optical densities were read at 550 nm using an Azure 96-well microplate reader (Azure Biosystems Inc.), and % inhibition of growth was calculated by comparison with the control values. IC50 values were determined using linear regression analysis (Microsoft Excel). A minimum of three separate determinations was carried out for each compound.

Another data set relates to P. falciparum 3D7. The data set is described as follows: In vitro antiplasmodial activity, P. falciparum 3D7 (SYBR Green I). It is filed as cell-based. Conditions: Plasmodium falciparum, read-out: Activity against P. falciparum 3D7, IC50. The procedure:
(§2) P. falciparum (3D7 clone) and P. knowlesi (A1-H.1 clone) were maintained in culture in RPMI 1640 supplemented with 25 mM HEPES, 25 mM NaHCO3, 10 mM D-glucose, 2 mM L-glutamine, 50 mg/L hypoxanthine, 25 mg/L gentamicin sulfate, 5 g/L Albumax II, and 10% (v/v) equine serum (Thermo Fisher Scientific, 26-050-088). The P. falciparum (3D7) and P. knowlesi (A1-H.1) parasites were grown in human A^+ red blood cells (National Health Blood and Transplant, United Kingdom). The parasites were incubated in sealed flasks at 37°C under a culture gas mixture of 96% N2, 3% CO2, and 1% O2. ([van Schalkwyk et al., 2019]). The compounds were initially dissolved in DMSO prior to diluting in RPMI. All experiments were initiated using unsynchronized parasites with both the parasitemia and hematocrit set to 1%. Drug susceptibility assays were set up in 96-well, flat-bottom microplates in a final volume of 200 μL, as described previously ([van Schalkwyk et al., 2017]). The controls were included for the background fluorescence (0% viability; parasites exposed to a supralethal 10 μM chloroquine concentration) and 100% growth (parasites in drug-free wells). The plates were incubated for one complete life cycle (27 h for P. knowlesi or 48 h for P. falciparum in vitro) at 37°C in a modular incubation chamber (Billups-Rothenburg Inc.) under the culture gas. Upon termination of the assay, the plates were stored at −20°C overnight. The SYBR Green I fluorescent method was used to measure parasite survival ([Bennett et al., 2004]; [Smilkstein et al., 2004]). After the microplates were thawed, 100 μL from each well was transferred into a duplicate plate. To this was added 100 μL of SYBR green solution [SYBR Green I (Thermo Fisher Scientific, S7563), diluted 1:5000 in a lysis buffer made of 20 mM Tris, 5 mM EDTA, 0.008% (w/v) saponin, 0.08% (v/v) Triton X-100, pH 7.5]. The plates were stored in the dark for 1 h before fluorescence was read at a 490 nm excitation wavelength and a 520 nm emission wavelength on a Spectramax M3 microplate reader (Molecular Devices) ([van Schalkwyk et al., 2017]). The background fluorescence (wells with parasites at 0% viability) was subtracted from all drug assay wells, and the parasite proliferation was determined as a percentage of the fluorescence in the drug-free control wells.

Another data set deals with P. knowlesi A1-H.1. The data set is described as follows: In vitro antiplasmodial activity, P. knowlesi A1-H.1 (SYBR Green I). It is filed as cell-based, Plasmodium knowlesi. Conditions: Plasmodium knowlesi, 27 h, read-out: Activity against P. knowlesi A1-H.1, IC50, 27 h, ± SD. The method, then: as §2
The subject of another data set is A2780/WT cells. The data set is described as follows: Chemosensitivity MTT assay, A2780 wild type. It is filed as cell-based, human. Conditions: ± SE, read-out: Activity against A2780/WT cells, IC50. The method, then:
(§3) The chemosensitivity of compounds 3–6 was assessed in the wild-type immortalized human ovarian adenocarcinoma cell line A2780 and its daughter cell lines, which are resistant to the standard cancer chemotherapeutics doxorubicin (A2780/ADR) and cisplatin (A2780/CIS, all cell lines from ECACC, Salisbury, United Kingdom). A modified MTT assay was used ([Shnyder et al., 2008]). Cells (2 × 10^4/ml) were inoculated into each well of a 96-well plate and incubated for 24 h at 37°C in a humidified atmosphere containing 5% CO2. Compounds were then added at a range of concentrations to each well, and the plates were then incubated for a further 96 h. After 96 h, the culture medium was removed and 200 μL of 0.5 mg ml^–1 MTT solution (Sigma) in the complete medium was added to each well. Following a further 4 h incubation, the solution was removed from each well and 150 μL of DMSO was added to solubilize the formazan crystals resulting from MTT conversion. The absorbance values for the resulting solutions were read at 540 nm on an Azure 96-well microplate reader (Azure Biosynstems Inc.), and the cell survival was calculated as the absorbance of treated cells divided by the control.

In the next data set the test system is A2780/cis cells. The data set is described as follows: Chemosensitivity MTT assay, cisplatin-resistant A2780/CIS. The class given is cell-based, human. Conditions: 96 h, ± SE, read-out: Activity against A2780/cis cells, IC50. The method, then:
as §3
(Tetrazolium dyes change colour on reduction, which living cells bring about.)

Data set [2] relates to P. falciparum K1. Further details: method as in Onyeibor et al., 2005. Conditions: strain K1; ref Onyeibor et al., 2005; read-out: Activity against P. falciparum K1, IC50; cited from earlier work.
Data set [3] relates to P. falciparum (NF54-Mal8p1.16-GFP-Luc) late-stage gametocytes. The data set can be described thus: microbe, parasite or virus in culture. It is filed as cell-based, Plasmodium falciparum. Conditions: Plasmodium falciparum; for inhibition at 5 µM: NF54, read-out: Inhibition of late-stage gametocytes. The method, then:
Gametocytes were produced as per [Reader et al. (2015]; [2021)] from P. falciparum NF54-Mal8p1.16-GFP-Luc ([Adjalley et al., 2011]), and each batch was validated for viability and functionality before use. […] Drug assays were set up on day 10 (representing late gametocytes, >90% stage IV/V gametocytes) using a 2–3% gametocytemia, 1.5% hematocrit culture. The drug pressure was for 48 h under stationary, hypoxic conditions (90% N2, 5% O2, and 5% CO2) at 37°C. Luciferase activity was determined in 30 μL parasite lysates by adding 30 μL luciferin substrate (Promega Luciferase Assay System) at room temperature and detection of resultant bioluminescence at an integration constant of 10 s with the GloMax®-Multi + Detection System with Instinct® Software. Methylene blue (5 μM) and an internal control (MMV390048, 5 μM) were routinely included as controls.

Data set [4] in a line: Acute oral toxicity in mice. Conditions: oral, 20, 50 and 100 mg/kg/dose × 3 consecutive days; up to 100 mg/kg/dose; 2 as hydrochloride, 4–6 as citrate. It is filed as in vivo. The method, then:
Female NIH Swiss mice aged 6–12 weeks were used (Envigo, Blackthorn, United Kingdom). The mice were kept in cages housed in isolation cabinets in an air-conditioned room with regular alternating cycles of light and darkness. They received Teklad 2018 diet (Envigo, Blackthorn, United Kingdom) and water ad libitum. All animal procedures were carried out under a project license issued by the UK Home Office, and UK National Cancer Research Institute Guidelines for the Welfare of Animals were followed throughout. […] A group of two untreated control animals was included at each dose level. Following treatment, the body weight was measured on a regular basis, and behavior and general appearance were monitored visually to assess for deleterious effects (e.g., dehydration, impaired mobility, hunched posture, a low body temperature, ulceration, and significant bodyweight loss), with any effects during the study recorded. […] If no deleterious effects were seen after at least 18 days of study, then the animals were sacrificed, and the dose was considered non-toxic.

A further data set relates to P. berghei. Conditions: I.P., 25 mg/kg; ref Onyeibor et al., 2005; cited from earlier work.
In another data set the test system is Hep G2-A16-CD81 cells. The data set can be described thus: Hep G2 cellular toxicity counter-screen (CellTiterGlo). The class given is cell-based. Conditions: HepG2-A16-CD81, no sporozoites, ± SE, read-out: Activity against Hep G cells. The method, then: as §1
On the technique in general: Counterscreens check selectivity or assay interference.

The next data set relates to A2780/ADR cells. The data set is described as follows: Chemosensitivity MTT assay, doxorubicin-resistant A2780/ADR. The class given is cell-based. Conditions: Homo sapiens, 96 h, ± SE, read-out: Activity against A2780/ADR cells, IC50. The procedure: as §3, with “A” for “The chemosensitivity of compounds 3–6 was assessed in the wild-type immortalized human ovarian adenocarcinoma cell line A2780 and its daughter cell lines, which are resistant to the standard cancer chemotherapeutics doxorubicin (A2780/ADR) and cisplatin (A2780/CIS, all cell lines from ECACC, Salisbury, United Kingdom). A”

Data set [5] relates to T. brucei bloodstream forms (strain 427, derivative 221). The data set is described as follows: In vitro activity against T. brucei bloodstream forms (resazurin). Conditions: Trypanosoma brucei, bloodstream forms, hydrochloride salts except 6 (citrate), ± SE. The class given is cell-based, Trypanosoma brucei. The method, then: Bloodstream form T. brucei (strain 427, derivative 221) was maintained in modified Iscove’s medium, as described previously ([Taylor et al., 2013]). […] The parasites were diluted to 1 × 10^4 ml^−1, the compound was added at a range of concentrations, and the plates were incubated at 37°C in 5% CO2 for 48 h. Resazurin was then added to each well, and the plates were incubated for a further 16 h. Fluorescence intensities were determined using a BMG FLUOstar Omega plate reader (excitation 545 nm, emission 590 nm), and data were analyzed using Graph Pad Prism 9.0 software. […]
For orientation: Alamar Blue is a resazurin reagent that responds to reducing activity.

Take `O=C1C(O)=C([C@H]2CC[C@H](c3ccc(Cl)cc3)CC2)C(=O)c2ccccc21` [Atovaquone, reference compound]: in the data set with P. berghei sporozoites, the IC50 is 0.383 nM.

Consider `CCN(CC)CCCC(C)Nc1ccnc2cc(Cl)ccc12` (stereo not drawn) [Chloroquine diphosphate, reference compound], for which the IC50 amounted to 350 ± 140 nM with P. falciparum K1 [1] (K1, 48 h); 12 ± 3 nM with P. falciparum 3D7 (3D7, 48 h); 20 ± 3 nM in the data set with P. knowlesi A1-H.1.

For the compound `N.N.[Cl][Pt][Cl]` [Cisplatin, reference compound], the IC50 in the data set on A2780/WT cells (96 h) was 3470 ± 2200 nM; in the data set with A2780/cis cells it was 24700 ± 2750 nM.

On to `Cn1c2c3cc(Br)ccc3nc-2cc2cc(Br)ccc21` [Compound 2, 2,7-dibromocryptolepine], for which the IC50 with P. falciparum K1 [2] was 49 ± 20 nM; in data set [3] (NF54, 48 h, read-out: Activity against late-stage gametocytes IC50), 2000 ± 170 nM; in the data set on P. falciparum 3D7 (chloroquine-sensitive strain 3D7, 48 h) it was 30 ± 6 nM; with P. knowlesi A1-H.1 it was 30 ± 4.5 nM; with Hep G2-A16-CD81 cells, 4940 ± 1810 nM. Moreover, the “Acute oral toxicity in mice” value in data set [4] is on record as “No toxicity was seen; also recorded: not toxic”. Moreover, the “Suppression of parasitemia in mice” value in the data set on P. berghei is 90%. The “Toxicity to mice in the antimalarial test” value in the data set with P. berghei was “without apparent toxicity”.

Usually IC90 stands for the concentration at which the effect reaches the 90% level. `C[n+]1c2ccccc2cc2[n-]c3ccc(Br)cc3c21` [Compound 3, 7-Bromocryptolepine]: the IC50 with A2780/WT cells (Homo sapiens, A2780, 96 h) was 70 ± 10 nM; in the data set on A2780/ADR cells, 170 ± 40 nM; in the data set on A2780/cis cells (Homo sapiens, A2780cis), 230 ± 20 nM; with P. falciparum K1 [1] (chloroquine-resistant strain K1, 48 h, mean ± SE) it was 150 ± 30 nM; in [5] (64 h, 48 h + 16 h resazurin), 199 ± 15 nM. Also, the IC90 in data set [5] worked out at 256 ± 6 nM.

As to `COc1cccc2c1C(=O)c1c(O)c3c(c(O)c1C2=O)C[C@@](O)(C(=O)CO)C[C@@H]3O[C@H]1C[C@H](N)[C@H](O)[C@H](C)O1` [Doxorubicin, reference compound], the IC50 in the data set with A2780/WT cells (Homo sapiens, A2780, 96 h) amounted to 70 ± 60 nM; in the data set on A2780/ADR cells, 3030 ± 350 nM.

The inhibition is the drop in the measured response relative to a control, in per cent. On to `CS(=O)(=O)c1ccc(-c2cnc(N)c(-c3ccc(C(F)(F)F)nc3)c2)cc1` [MMV 390048, reference compound], for which, in [3], the inhibition at 5 µM stood at 96.2%.

Turning to `CN(C)c1ccc2nc3ccc(=[N+](C)C)cc-3sc2c1` [Methylene blue, reference compound], the inhibition at 5 µM in data set [3] worked out at 96%.

Source of the values: publication PMC9119314 (Frontiers in Pharmacology, 2022).
